Results from patent EP3539964A1, “BASE ACETAMIDE GLYCERIN ETHER MOLECULE, CHEMICAL SYNTHESIS METHOD THEREFOR, AND APPLICATIONS THEREOF IN FIELD OF GENE THERAPY” (Peking University, priority 2016, dated 2018).

Columns and labels:
[1] = Cytotoxicity using CCK-8 kit; format: cell-based; settings: for viability at 72 h, 60 µM: 72 hours after addition, concentration of 60 µM, read-out: cell survival rate; for cytotoxicity: CCK-8 kit (Fig. 6)
Procedure: When base acetamide glycerin ether molecules should is to be used as novel biomaterials in the field of gene therapy, they must have good biocompatibility. Two base acetamide glycerin ether compounds (DOCA and DOTA) were studied for cytotoxicity using CCK-8 kit. […] After 72 hours of addition of the base acetamide glycerin ether compound at a concentration of 60 µM, the cell survival rate was close to 100%, indicating good biocompatibility (Fig. 6).

[2] = tested on: MCF-7 cells; assay: Antisense nucleic acid (Cenersen) uptake; format: cell-based; settings: liposomes, compared with blank group and DOCA/DOTA liposome groups (Fig. 8)
Procedure: The cells used in the transfection experiments were Hela cells. • (1) Plating: 300,000 cells were added to the six-well plate, and the volume per well was 1.8 mL; • (2) After 18-24 h, the samples were diluted in an appropriate amount of opti-MEM, blowing and suction with a pipette to mix well, 20 µL of the mixed […] The DNA-free and DNA-only wells were used as two negative controls, and the transfection reagent Lipofectamine 2000-DNA complex (the method of addition of transfection reagent and DNA group according to the protocol) was added as a positive control; • (3) Washing three times with 500 µL PBS; • (4) After 4 hours, the liquids in the culture wells were aspirated, after adding 250 µL of 5% trypsin each, they were placed in 1.5 mL EP tubes, the cells were fixed with 4% paraformaldehyde for 15 min; • (5) Centrifuging, discarding the supernatant, adding 400 µL PBS in each tube; • (6) Fluorescence intensity was measured by using flow cytometry;
The procedure was the same as the transfection experiments of DNCA- and DNTA-packed PolyG/PolyA (using DOCA and DOTA as controls), the cell line was selected from MCF-7 cell line.

[3] = Particle size and morphology of liposomes by electron microscopy; format: physicochemical; settings: liposome/nanoparticles self-assembled in water, electron microscopy (Fig. 5)
Procedure: The base-acetamide glycerin ether molecule has an amphiphilic structure and can be prepared into a supramolecular structure such as a liposome. Taking DNTA as an example, the preparation method of liposome is as follows: DNTA (1.18 mg, 1.56 µmol) is dissolved in methanol (1 mL), vortexed to fully dissolve, after centrifugation, DNTA methanol solution (12.8 µL) is measured out and adding to a 200 µL centrifuge tube, added with PBS (100 µL), vortexed (10 s) to mix well. The solution was placed in a PCR program for annealing. Procedure: Heating at 95°C for 10 minutes, cool down 5°C every 5 minutes until 15°C, then store at 4°C. After annealing was completed, the centrifuge tube was incubated at 40°C for 30 min for the complete evaporation of methanol to obtain the liposome solution.
Under transmission electron microscope (TEM), it can be seen that the neutral base lipid carrier molecules DNCA and DNTA can form stable and uniform nanoparticles in aqueous solution. The size of the DNTA molecules assembled in water is around 150 nm. The size of the liposome formed by self-assembly of DNCA carrier molecules in water is around 180 nm (Fig. 5).

[4] = tested on: Hela cells; assay: Transfection of FAM-labeled polyA/G, fluorescence intensity by flow cytometry; format: cell-based; settings: liposomes mixed with FAM-polyA at base ratio 5/1, 100 nM FAM-polyA, 4 hours, Hela cells (Fig. 7)
Text: Taking DNTA and DNCA as examples, FAM-labeled polyA/G was used as a template to study the nucleic acid transfection abilities of thymine base acetamide glycerin ethers. The specific coating and transfection process is as follows: DNTA or DNCA liposomes were formulated as mixed solutions with FAM-polyA or FAM-polyG at a base ratios of 5/1. […] The DNA-free and DNA-only wells were used as two negative controls, and the transfection reagent Lipofectamine 2000-DNA complex (the method of addition of transfection reagent and DNA group according to the protocol) was added as a positive control; • (3) Washing three times with 500 µL PBS; • (4) After 4 hours, the liquids in the culture wells were aspirated, after adding 250 µL of 5% trypsin each, they were placed in 1.5 mL EP tubes, the cells were fixed with 4% paraformaldehyde for 15 min; • (5) Centrifuging, discarding the supernatant, adding 400 µL PBS in each tube; • (6) Fluorescence intensity was measured by using flow cytometry;

size [3] | Compound | viability at 72 h, 60 µM [1] [%] | cytotoxicity [1] | uptake of antisense nucleic acid [2] | transfection of FAM-polyA into cells [4]
around 180 nm | CCCCCCCC/C=C\CCCCCCCCOCC(CNC(=O)Cn1ccc(N)nc1=O)OCCCCCCCC/C=C\CCCCCCCC (stereo not shown) [DNCA, 1,2,-bis(oleyl)-glycero-3-amine-(cytosin-1-yl)-acetyl ester] | ~100 | no obvious cytotoxicity | could significantly increase the uptake ability of MCF-7 cells | can successfully transport FAM-polyA into cells
around 150 nm | CCCCCCCC/C=C\CCCCCCCCOCC(CNC(=O)Cn1cc(C)c(=O)[nH]c1=O)OCCCCCCCC/C=C\CCCCCCCC (stereo not shown) [DNTA, 1,2,-bis(oleyl)-glycero-3-amine-(thymidine-1-yl)-acetyl ester] | ~100 | no obvious cytotoxicity | could significantly increase the uptake ability of MCF-7 cells | can successfully transport FAM-polyA into cells
